The format of one data set is physicochemical. The conditions noted are these: HPLC on reversed phase columns, method [a]: pH 2.7, 0.1% formic acid in water / acetonitrile, linear gradient 10% to 95% acetonitrile.
As for `C#Cc1cnc2ccc(C3=NOC(C)(C(=O)NCC[Si](C)(C)C)C3)cc2c1` (stereo not shown) [compound 231], the “log P” value was 3.7^[a].

Turning to `C#Cc1cnc2ccc(C3=NOC(C)(C(=O)NCC4CCCN4CC)C3)cc2c1` (stereo not shown) [compound 232], the “log P” value is 1.22^[a].

With `C#CCOc1coc(CNC(=O)C2(C)CC(c3ccc4ncc(C#C)cc4c3)=NO2)cc1=O` (stereo not shown) [compound 233], the “log P” value was 1.98^[a].

Take `CC1(C(=O)NC2COC2)CC(c2ccc3ncc(Br)cc3c2)=NO1` (stereo not shown) [compound 235]: the “log P” value was 1.99^[a].

Turning to `C#Cc1cnc2ccc(C3=NOC(C)(C(=O)NC4CCCCC4)C3)cc2c1` (stereo not shown) [compound 236], the “log P” value is 3.25^[a].

With `CC1(C(=O)NC2CCCCC2)CC(c2ccc3ncc(Br)cc3c2)=NO1` (stereo not shown) [compound 239], the “log P” value was 3.63^[a].

For the compound `CN1C(C)(C)CC(NC(=O)C2(C)CC(c3ccc4ncc(Br)cc4c3)=NO2)CC1(C)C` (stereo not shown) [compound 240], the “log P” value is 1.47^[a].

As to `CC1(C(=O)NCC#Cc2ccc(Cl)cc2)CC(c2ccc3ncc(Br)cc3c2)=NO1` (stereo not shown) [compound 248], the “log P” value is 4.06^[a].

On to `CC1(C(=O)NCC2CCCCC2)CC(c2ccc3ncc(Br)cc3c2)=NO1` (stereo not shown) [compound 249], for which the “log P” value was 3.96^[a].

Take `C#Cc1cnc2ccc(C3=NOC(C)(C(=O)NCC4C5CC6CC(C5)CC4C6)C3)cc2c1` (stereo not shown) [compound 250]: the “log P” value was 4.46^[a].

With `C#CCOc1coc(CNC(=O)C2(C)CC(c3ccc4ncc(Br)cc4c3)=NO2)cc1=O` (stereo not shown) [compound 251], the “log P” value was 2.2^[a].

Turning to `CC1(C(=O)NC2CCCCNC2=O)CC(c2ccc3ncc(Br)cc3c2)=NO1` (stereo not shown) [compound 252], the “log P” value was 2.23^[a].

Consider `C#Cc1cnc2ccc(C3=NOC(C)(C(=O)NCc4ccc5ccccc5n4)C3)cc2c1` (stereo not shown) [compound 253], for which the “log P” value was 2.45^[a].

With `CCCSc1cnc2ccc(C3=NOC(C)(C(=O)NC(C)C)C3)cc2c1` (stereo not shown) [compound 254], the “log P” value is 3.26^[a].

In the case of `CC(C)NC(=O)C12CCCC1C(c1ccc3ncc(Br)cc3c1)=NO2` (stereo not shown) [compound 255], the “log P” value was 3.19^[a].

For `CCn1cc(CNC(=O)C2(C)CC(c3ccc4nc(OC)c(Br)cc4c3)=NO2)c(C)n1` (stereo not shown) [compound 263], the “log P” value is 2.96^[a].

In the case of `CCCSc1cnc2ccc(C3=NOC(C)(C(=O)NCc4cn(CC)nc4C)C3)cc2c1` (stereo not shown) [compound 264], the “log P” value was 2.76^[a].

Take `O=C(NC1CC1)C1(C2CC2)CC(c2ccc3ncc(Br)cc3c2)=NO1` (stereo not shown) [compound 269]: the “log P” value was 2.88[a].

With `CCOCCCNC(=O)C1(C2CC2)CC(c2ccc3ncc(Br)cc3c2)=NO1` (stereo not shown) [compound 270], the “log P” value is 3.21[a].

Turning to `CC(C)NC(=O)C12CCCCC1C(c1ccc3ncc(Br)cc3c1)=NO2` (stereo not shown) [compound 272], the “log P” value is 3.55[a].

Turning to `CC(C)NC(=O)C1(C)ON=C(c2ccc3ncc(Br)cc3c2)C1C` (stereo not shown) [compound 274], the “log P” value was 3.04[a].

For the compound `COc1nc2ccc(C3=NOC(C)(C(=O)NC(C)C)C3)cc2cc1Br` (stereo not shown) [compound 275], the “log P” value is 3.54[a].

`CCSc1cnc2ccc(C3=NOC(C)(C(=O)NCc4cn(CC)nc4C)C3)cc2c1` (stereo not shown) [compound 276]: the “log P” value was 2.39[a].

Staying with this data set, now noted: method [a]: HPLC/LC-MS on reversed phase at pH 2.7, 0.1% formic acid in water / acetonitrile, linear gradient 10% to 95% acetonitrile.
In the case of `CC1(C(=O)NCc2cccnc2)CC(c2ccc3ncc(Br)cc3c2)=NO1` (stereo not shown) [compound 92], the “log P” value is 1.41^[a].

With `CC1(C(=O)NCc2ccccc2Cl)CC(c2ccc3ncc(Br)cc3c2)=NO1` (stereo not shown) [compound 93], the “log P” value is 3.61^[a].

For the compound `CC1(C(=O)NCc2ccc(Cl)cc2)CC(c2ccc3ncc(Br)cc3c2)=NO1` (stereo not shown) [compound 94], the “log P” value was 3.61^[a].

Turning to `CC1(C(=O)NCc2cnn(-c3ccccc3)n2)CC(c2ccc3ncc(Br)cc3c2)=NO1` (stereo not shown) [compound 96], the “log P” value was 3.5^[a].

Turning to `CC1(C(=O)NCc2cc(Cl)cc(Cl)c2)CC(c2ccc3ncc(Br)cc3c2)=NO1` (stereo not shown) [compound 97], the “log P” value was 4.16^[a].

Consider `CC1(C(=O)NCc2ccc(OC(F)(F)F)cc2)CC(c2ccc3ncc(Br)cc3c2)=NO1` (stereo not shown) [compound 101], for which the “log P” value is 3.92^[a].

For `CC1(C(=O)NCc2ccncc2)CC(c2ccc3ncc(Br)cc3c2)=NO1` (stereo not shown) [compound 102], the “log P” value was 1.34^[a].

Consider `CCCn1cc(CNC(=O)C2(C(F)(F)F)CC(c3ccc4ncc(Br)cc4c3)=NO2)c(C)n1` (stereo not shown) [compound 107], for which the “log P” value was 3.33^[a].

In the case of `CC1(C(=O)NCCc2ccc(Cl)cc2Cl)CC(c2ccc3ncc(Br)cc3c2)=NO1` (stereo not shown) [compound 110], the “log P” value is 4.16^[a].

For `CC1(C(=O)NCCc2ccc(Cl)cc2)CC(c2ccc3ncc(Br)cc3c2)=NO1` (stereo not shown) [compound 111], the “log P” value was 3.68^[a].

`CC1(C(=O)NCC2CCOc3ccccc32)CC(c2ccc3ncc(Br)cc3c2)=NO1` (stereo not shown) [compound 112]: the “log P” value was 3.48^[a].

In the case of `CC1(C(=O)NCC2CCCOC2c2ccccc2)CC(c2ccc3ncc(Br)cc3c2)=NO1` (stereo not shown) [compound 113], the “log P” value was 3.5^[a].

`Cc1cc2cc(CNC(=O)C3(C)CC(c4ccc5ncc(Br)cc5c4)=NO3)ccc2[nH]1` (stereo not shown) [compound 114]: the “log P” value was 3.17^[a].

For the compound `CC1(C(=O)NCc2ccc3[nH]ccc3c2)CC(c2ccc3ncc(Br)cc3c2)=NO1` (stereo not shown) [compound 116], the “log P” value is 2.92^[a].

As for `CC1(C(=O)NCC2OCCc3ccccc32)CC(c2ccc3ncc(Br)cc3c2)=NO1` (stereo not shown) [compound 117], the “log P” value is 3.33^[a].

Consider `CC1(C(=O)NCc2ccc3c(c2)OCCO3)CC(c2ccc3ncc(Br)cc3c2)=NO1` (stereo not shown) [compound 118], for which the “log P” value is 3.04^[a].

For the compound `CC1(C(=O)NCC2CCC(C(F)(F)F)CC2)CC(c2ccc3ncc(Br)cc3c2)=NO1` (stereo not shown) [compound 119], the “log P” value was 4.01^[a].

Regarding `CC1(C(=O)NCc2ccc3c(c2)OCC3)CC(c2ccc3ncc(Br)cc3c2)=NO1` (stereo not shown) [compound 123], the “log P” value is 3.17^[a].

As for `CN1C(=O)CCC1CNC(=O)C1(C)CC(c2ccc3ncc(Br)cc3c2)=NO1` (stereo not shown) [compound 124], the “log P” value was 1.85^[a].

For `CCN1CCCC1CNC(=O)C1(C)CC(c2ccc3ncc(Br)cc3c2)=NO1` (stereo not shown) [compound 126], the “log P” value was 1.37^[a].

With `CC(C)NC(=O)C1(c2ccccc2)CC(c2ccc3ncc(Br)cc3c2)=NO1` (stereo not shown) [compound 136], the “log P” value was 3.78^[a].

For `CC(C)NC(=O)C1(CCl)CC(c2ccc3ncc(Br)cc3c2)=NO1` (stereo not shown) [compound 139], the “log P” value was 3.01^[a].

As to `CCn1cc(CNC(=O)C2(C)CC(c3ccc4ncc(-c5cccs5)cc4c3)=NO2)c(C)n1` (stereo not shown) [compound 142], the “log P” value is 2.63^[a].

As for `CCn1cc(CNC(=O)C2(C)CC(c3ccc4ncc([S+](C)[O-])cc4c3)=NO2)c(C)n1` (stereo not shown) [compound 145], the “log P” value was 1.34^[a].

Turning to `CCn1cc(CNC(=O)C2(C)CC(c3ccc4ncc(S(C)(=O)=O)cc4c3)=NO2)c(C)n1` (stereo not shown) [compound 151], the “log P” value is 1.6^[a].

Take `CCn1cnnc1CNC(=O)C1(C)CC(c2ccc3ncc(Br)cc3c2)=NO1` (stereo not shown) [compound 154]: the “log P” value is 1.72^[a].

As for `CC1(C(=O)NCc2ncc(C(F)(F)F)cc2Cl)CC(c2ccc3ncc(Br)cc3c2)=NO1` (stereo not shown) [compound 156], the “log P” value was 3.89^[a].

`CC1(C(=O)NCc2ccnc(N3CCCC3)c2)CC(c2ccc3ncc(Br)cc3c2)=NO1` (stereo not shown) [compound 158]: the “log P” value is 1.53^[a].

As for `C#Cc1cnc2ccc(C3=NOC(C)(C(=O)NCc4nncn4CC)C3)cc2c1` (stereo not shown) [compound 159], the “log P” value was 1.54^[a].

For the compound `CC1(C(=O)NCc2ccc3ccccc3n2)CC(c2ccc3ncc(Br)cc3c2)=NO1` (stereo not shown) [compound 165], the “log P” value was 2.75^[a].

In the case of `C#Cc1cnc2ccc(C3=NOC(C)(C(=O)NCc4ccnc(N5CCCC5)c4)C3)cc2c1` (stereo not shown) [compound 166], the “log P” value is 1.42^[a].

Turning to `C#Cc1cnc2ccc(C3=NOC(C)(C(=O)NCc4cccc(Cl)c4Cl)C3)cc2c1` (stereo not shown) [compound 172], the “log P” value is 3.58^[a].

In the case of `CC1(C(=O)NCc2cccc(Cl)c2Cl)CC(c2ccc3ncc(Br)cc3c2)=NO1` (stereo not shown) [compound 174], the “log P” value was 4.01^[a].

As for `C#Cc1cnc2ccc(C3=NOC(C)(C(=O)NCc4ccc(Oc5ccccc5)cc4)C3)cc2c1` (stereo not shown) [compound 175], the “log P” value was 3.8^[a].

In the case of `Cn1cncc1CNC(=O)C1(C)CC(c2ccc3ncc(Br)cc3c2)=NO1` (stereo not shown) [compound 203], the “log P” value was 2.14^[a].

Take `CC1(C(=O)NCc2nnco2)CC(c2ccc3ncc(Br)cc3c2)=NO1` (stereo not shown) [compound 204]: the “log P” value was 2.17^[a].

For the compound `CC1(C(=O)NCc2ccccc2Oc2ccccc2)CC(c2ccc3ncc(Br)cc3c2)=NO1` (stereo not shown) [compound 207], the “log P” value was 4.32^[a].

Turning to `C#Cc1cnc2ccc(C3=NOC(C)(C(=O)NCCc4ccc(OC(F)(F)F)cc4)C3)cc2c1` (stereo not shown) [compound 209], the “log P” value is 3.55^[a].

Take `C#Cc1cnc2ccc(C3=NOC(C)(C(=O)NCCc4ccc(Cl)cc4)C3)cc2c1` (stereo not shown) [compound 210]: the “log P” value was 3.25^[a].

`CC1(C(=O)NCCc2ccc(OC(F)(F)F)cc2)CC(c2ccc3ncc(Br)cc3c2)=NO1` (stereo not shown) [compound 211]: the “log P” value is 3.96^[a].

As for `C#Cc1cnc2ccc(C3=NOC(C)(C(=O)NCCc4ccc(Cl)cc4Cl)C3)cc2c1` (stereo not shown) [compound 212], the “log P” value is 3.7^[a].

Turning to `C#Cc1cnc2ccc(C3=NOC(C)(C(=O)NC4CC(C)(C)N(C)C(C)(C)C4)C3)cc2c1` (stereo not shown) [compound 217], the “log P” value was 1.34^[a].

Take `C#Cc1cnc2ccc(C3=NOC(C)(C(=O)NC4(C#C)CCCCC4)C3)cc2c1` (stereo not shown) [compound 218]: the “log P” value is 3.48^[a].

As for `CC1(C(=O)NCc2cccc3ccccc23)CC(c2ccc3ncc(Br)cc3c2)=NO1` (stereo not shown) [compound 224], the “log P” value was 3.85^[a].

Regarding `CC1(C(=O)NCC[Si](C)(C)C)CC(c2ccc3ncc(Br)cc3c2)=NO1` (stereo not shown) [compound 228], the “log P” value was 4.14^[a].

On to `C#Cc1cnc2ccc(C3=NOC(C)(C(=O)NCC#Cc4ccc(Cl)cc4)C3)cc2c1` (stereo not shown) [compound 229], for which the “log P” value is 3.65^[a].

On to `C#Cc1cnc2ccc(C3=NOC(C)(C(=O)NC4CCCCNC4=O)C3)cc2c1` (stereo not shown) [compound 230], for which the “log P” value was 1.98^[a].

(Values after patent US9510598B2, “Nitrogen-containing heterocyclic compounds for plant disease control” (BAYER CROPSCIENCE AG, priority 2012, dated 2016).)
